Data on 17 molecules can be found in PMC3426641 (Biochemistry, 2012).

Like-named read-outs stand apart in the source and are kept apart here.

Series [1] deals with T1, Eis_Msm (Mycobacterium smegmatis, UniProt A0QY29). Put plainly: Number of acetylations of AGs by Eis_Msm. It is filed as biochemical. The note with it: number of acetylations per AG; UV-Vis assay and LCMS, 25 °C, pH 8.0.
Series [2] concerns the target T1, Eis_Msm.
Series [3] addresses T1, Eis_Msm. Put plainly: biochemical.
Series [4] addresses T2, Eis_Mtb (Mycobacterium tuberculosis, UniProt P9WFK7). The series can be described thus: biochemical.
Series [5] addresses T2, Eis_Mtb.
Series [6] deals with T1, Eis_Msm. Put plainly: Inhibition of Eis_Msm NEO acetylation. It is filed as biochemical. The following applies: for mode of inhibition: Eis_Msm, against NEO.
The target in series [7] is T2, Eis_Mtb. Put plainly: Inhibition of Eis_Mtb NEO acetylation. It is filed as biochemical.
Series [8] has as its system CCN[C@@H]1C[C@H](N)[C@@H](O[C@H]2OC(CN)=CC[C@H]2N)[C@H](O)[C@H]1O[C@H]1OC[C@](C)(O)[C@H](NC)[C@H]1O. The series can be described thus: purified protein, by the assay type. The note with it: other: Eis_Msm, pH 8.0.
Series [9] deals with CN[C@@H]1[C@@H](O)[C@@H](O[C@@H]2[C@@H](O)[C@H](O[C@H]3OC(CN)=CC[C@H]3N)[C@@H](N)C[C@H]2N)OC[C@]1(C)O. Put plainly: purified protein, by the assay type. The following applies: other: Eis_Msm, pH 8.0.
The test system of series [10] is NCC[C@H](O)C(=O)N[C@@H]1C[C@H](N)[C@@H](O[C@H]2O[C@H](CN)[C@@H](O)[C@H](O)[C@H]2O)[C@H](O)[C@H]1O[C@H]1O[C@H](CO)[C@@H](O)[C@H](N)[C@H]1O. The series can be described thus: purified protein, by the assay type. The following applies: pH 8.0.
Series [11] has as its system NC[C@@H]1O[C@H](O[C@H]2[C@@H](O)[C@H](O[C@@H]3[C@@H](O)[C@H](N)C[C@H](N)[C@H]3O[C@H]3O[C@H](CN)[C@@H](O)[C@H](O)[C@H]3N)O[C@@H]2CO)[C@H](N)[C@@H](O)[C@@H]1O. The series can be described thus: purified protein, by the assay type. The note with it: other: Eis_Msm, pH 8.0.
Series [12] relates to NC[C@@H]1O[C@H](O[C@H]2[C@@H](O)[C@H](O[C@@H]3[C@@H](O)[C@H](N)C[C@H](N)[C@H]3O[C@H]3O[C@H](CO)[C@@H](O)[C@H](O)[C@H]3N)O[C@@H]2CO)[C@H](N)[C@@H](O)[C@@H]1O. The series can be described thus: purified protein, by the assay type. The note with it: other: Eis_Msm, fixed AcCoA 0.1 mM, varying AG, 25 °C, pH 8.0.
In series [13] the test system is NC[C@H]1O[C@H](O[C@H]2[C@H](O)[C@@H](O)[C@H](N)C[C@@H]2N)[C@H](N)[C@@H](O)[C@@H]1O. The series can be described thus: purified protein, by the assay type. The note with it: pH 8.0.
Series [14] concerns NC[C@H]1O[C@H](O[C@H]2[C@H](O)[C@@H](O[C@H]3O[C@H](CO)[C@@H](O)[C@H](N)[C@H]3O)[C@H](N)C[C@@H]2N)[C@H](N)C[C@@H]1O. Put plainly: purified protein, by the assay type. The following applies: pH 8.0.
The mark [15] stands for this setting: Eis_Msm, fixed AG 0.5 mM, varying AcCoA, 25 °C, pH 8.0.
Setting [16] is: fixed AcCoA 0.1 mM, varying AG, 25 °C.
Setting [17] is: random sequential mechanism, 25.0 °C.
Where [18] appears, read: other: Eis_Msm, fixed AcCoA 0.1 mM, varying AG, 25 °C.

T2 sequence (P9WFK7 whole entry): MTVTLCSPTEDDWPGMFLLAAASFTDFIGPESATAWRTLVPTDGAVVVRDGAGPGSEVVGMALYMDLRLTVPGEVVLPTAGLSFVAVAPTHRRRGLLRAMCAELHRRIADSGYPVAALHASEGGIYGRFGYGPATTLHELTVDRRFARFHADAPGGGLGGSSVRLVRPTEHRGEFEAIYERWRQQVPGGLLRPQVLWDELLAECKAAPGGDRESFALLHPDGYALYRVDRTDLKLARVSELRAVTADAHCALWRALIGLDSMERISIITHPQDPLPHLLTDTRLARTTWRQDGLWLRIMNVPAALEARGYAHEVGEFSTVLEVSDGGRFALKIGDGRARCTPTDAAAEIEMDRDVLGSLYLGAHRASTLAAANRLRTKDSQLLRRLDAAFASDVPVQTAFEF

The Kd is the constant that tells how readily two partners part at equilibrium. Lower therefore signals higher affinity. `NCC[C@H](O)C(=O)N[C@@H]1C[C@H](N)[C@@H](O[C@H]2O[C@H](CN)[C@@H](O)[C@H](O)[C@H]2O)[C@H](O)[C@H]1O[C@H]1O[C@H](CO)[C@@H](O)[C@H](N)[C@H]1O` [AMK, amikacin]: the “level of acetylation by Eis from M. smegmatis” value (from here on “level of acetylation by Eis”) in [1] was “tri-acetylated”. Also, the “kcat,AcCoA” value in [2] (setting [15]) was found to be 0.142 ± 0.026 s⁻¹. Moreover, the Kd was > 1000 µM in series [3] and 32 ± 14 µM in series [4].
As for `CN[C@@H]1[C@@H](O[C@H]2O[C@H](CO)[C@@H](N)[C@H](O)[C@H]2O)OC2C[C@@H](N)[C@@H](O[C@H]3[C@H](O)[C@@H](O)[C@H](N)C[C@@H]3N)OC2[C@@H]1O` (stereo partly shown) [APR, apramycin], the “level of acetylation by Eis” value in series [1] is on record as “di-acetylated”.
Take `CC(=O)SCCNC(=O)CCNC(=O)[C@H](O)C(C)(C)COP(=O)(O)OP(=O)(O)OC[C@H]1O[C@@H](n2cnc3c(N)ncnc32)[C@H](O)[C@@H]1OP(=O)(O)O` [AcCoA, acetyl-coenzyme A]: the “Kd,AcCoA(E) fold smaller than Kd,AcCoA(E•AG)” value in series [2] (Eis_Msm, AG = KAN) was “approximately 17 fold”.
As for `CN[C@@H]1C[C@H](N)[C@@H](O)[C@H](O[C@H]2O[C@H](CO)[C@H](O)[C@@H]3O[C@@]4(O[C@@H]23)O[C@H]([C@H](N)CO)[C@H](O)[C@H](O)[C@H]4O)[C@H]1O` [HYG, hygromycin], the “level of acetylation by Eis” value in [1] is listed as “mono-acetylated”.
As to `NC[C@H]1O[C@H](O[C@H]2[C@H](O)[C@@H](O)[C@H](N)C[C@@H]2N)[C@H](N)[C@@H](O)[C@@H]1O` [NEA, neamine], the “level of acetylation by Eis” value in [1] is listed as “tri-acetylated”. Also, the dissociation constant Kd in series [3] worked out at 141 ± 60 µM; in [4], 95 ± 50 µM.
For the molecule `NC[C@@H]1O[C@H](O[C@H]2[C@@H](O)[C@H](O[C@@H]3[C@@H](O)[C@H](N)C[C@H](N)[C@H]3O[C@H]3O[C@H](CN)[C@@H](O)[C@H](O)[C@H]3N)O[C@@H]2CO)[C@H](N)[C@@H](O)[C@@H]1O` [NEO, neomycin B], the “level of acetylation by Eis” value in [1] is listed as “tri-acetylated”. Besides, in series [2] (25 °C, pH 8.0), the “kcat,AcCoA” value was determined as 0.546 ± 0.065 s⁻¹. In addition, the equilibrium dissociation constant (Kd) was > 1000 µM in [3] and 75 ± 41 µM in series [4].
Turning to `CCN[C@@H]1C[C@H](N)[C@@H](O[C@H]2OC(CN)=CC[C@H]2N)[C@H](O)[C@H]1O[C@H]1OC[C@](C)(O)[C@H](NC)[C@H]1O` [NET, netilmicin], the “level of acetylation by Eis” value in series [1] was “di-acetylated”. In addition, the “kcat,AcCoA” value in series [2] (setting [15]) was 0.819 ± 0.121 s⁻¹. Besides, the Kd is 108 ± 35 µM in series [3] and 31 ± 10 µM in series [4].
For orientation: Km means the concentration of substrate that gives half-maximal velocity. In the case of `NC[C@@H]1O[C@H](O[C@H]2[C@@H](O)[C@H](O[C@@H]3[C@@H](O)[C@H](N)C[C@H](N)[C@H]3O[C@H]3O[C@H](CO)[C@@H](O)[C@H](O)[C@H]3N)O[C@@H]2CO)[C@H](N)[C@@H](O)[C@@H]1O` [PAR, paromomycin], the “level of acetylation by Eis” value in series [1] is “tri-acetylated”. Besides, in [5], the “kcat,AG” value stood at 0.15 ± 0.01 s⁻¹. Moreover, the Km in [5] (read-out: Km,AG) amounted to 96 ± 20 µM.
With `NC[C@H]1O[C@H](O[C@H]2[C@H](O[C@@H]3O[C@H](CO)[C@@H](O)[C@H]3O)[C@@H](O)[C@H](N)C[C@@H]2N)[C@H](N)[C@@H](O)[C@@H]1O` [RIB, ribostamycin], the “level of acetylation by Eis” value in [1] is recorded as “tri-acetylated”.
With `CN[C@@H]1[C@@H](O)[C@@H](O[C@@H]2[C@@H](O)[C@H](O[C@H]3OC(CN)=CC[C@H]3N)[C@@H](N)C[C@H]2N)OC[C@]1(C)O` [SIS, sisomicin], in [1], the “level of acetylation by Eis” value is reported as “tri-acetylated”. For the same molecule, the “kcat,AcCoA” value in series [2] (25 °C, pH 8.0) worked out at 0.620 ± 0.063 s⁻¹. Besides, the dissociation constant (Kd) was determined as 179 ± 54 µM in [3] and 340 ± 140 µM in [4].
As to `CN[C@@H]1[C@H](O)[C@H](NC)[C@H]2O[C@@]3(O)C(=O)C[C@@H](C)O[C@H]3O[C@@H]2[C@H]1O` [SPT, spectinomycin], the “level of acetylation by Eis” value in [1] was “not modified”.
On the same count and under the same terms, next, `[H]/N=C(/N)N[C@H]1[C@H](O)[C@@H](O)[C@H](O[C@@H]2O[C@@H](C)[C@](O)(C=O)[C@H]2O[C@@H]2O[C@@H](CO)[C@H](O)[C@@H](O)[C@@H]2NC)[C@@H](N/C(N)=N\[H])[C@@H]1O` [STR, streptomycin]: “not modified”.
Same read-out and setting: next, `NC[C@H]1O[C@H](O[C@H]2[C@H](O)[C@@H](O[C@H]3O[C@H](CO)[C@@H](O)[C@H](N)[C@H]3O)[C@H](N)C[C@@H]2N)[C@H](N)C[C@@H]1O` [TOB, tobramycin]: “tetra-acetylated”.
The term IC50 denotes the concentration at which inhibition is half-maximal. The Ki is the equilibrium dissociation constant of an inhibitor or competing ligand from its target. A higher Ki goes with lower affinity. The molecule `[H]/N=C(\N/C(=N/[H])NCCCCCCNC(=N)NC(=N)Nc1ccc(Cl)cc1)Nc1ccc(Cl)cc1` [chlorhexidine (1), chlorhexidine] returned a half-inhibitory concentration (IC50) in series [6] of 1.85 µM. The inhibitory constant (Ki) is 0.47 ± 0.15 µM in series [6] and 0.105 ± 0.024 µM in series [7]. Also, the mode of inhibition entry in [6] (listed as 1) was “AG-competitive mode”; in series [6] (listed as Chlorhexidine (1)) it was “competitive inhibitor of NEO”.
A word on the kcat: it is the maximal rate divided by the concentration of active sites. Consider “Eis_Msm (Mycolicibacterium smegmatis MC2 155)”, for which the Michaelis-Menten constant (Km) came out at 197 ± 30 µM in series [8] (setting [16]); 82 ± 8 µM in series [9] (setting [16]); 251 ± 55 µM in series [10] (setting [18]); 314 ± 77 µM in series [11] (setting [16]); 153 ± 55 µM in [12]; 359 ± 101 µM in [13] (setting [18]). Also, the Km in [14] (setting [18]) was 131 ± 22 µM. The kcat in series [8] (setting [16]) was 0.835 ± 0.057 s⁻¹; in series [8] (setting [17]) it was 1 ± 0.4 s⁻¹; in series [9] (setting [16]) it was 0.206 ± 0.006 s⁻¹; in [9] (setting [17]), 0.85 ± 0.25 s⁻¹; in series [10] (other: Eis_Msm, random sequential mechanism, 25.0 °C) it was > 0.3 s⁻¹; in series [11] (setting [17]), > 1 s⁻¹. For the same molecule, the kcat in series [12] is 0.035 ± 0.006 s⁻¹; in series [13] (setting [18]) it was 0.176 ± 0.027 s⁻¹; in series [14] (setting [18]) it was 0.267 ± 0.016 s⁻¹.
“Eis_Mtb (Mycobacterium tuberculosis H37Rv)”: the results for the Km in series [10] (25.0 °C), in series [13] (25.0 °C) and in series [14] (25.0 °C) were 113 ± 35 µM, 137 ± 57 µM and 116 ± 17 µM, respectively. Besides, the kcat amounted to 0.03 ± 0.004 s⁻¹ in series [10] (25.0 °C), 0.064 ± 0.01 s⁻¹ in series [13] (25.0 °C) and 0.21 ± 0.01 s⁻¹ in [14] (25.0 °C).
Consider kanamycin A, for which, in series [1], the “level of acetylation by Eis” value is “di-acetylated”. Besides, in series [2] (setting [15]), the “kcat,AcCoA” value was determined as 0.398 ± 0.060 s⁻¹. The “kcat,AG” value in [2] (Eis_Msm, fixed AcCoA 0.1 mM, varying AG, 25 °C, pH 8.0) worked out at 0.108 ± 0.005 s⁻¹. For the same molecule, in series [5], the “kcat (microscopic rate constant of acetylation)” value came out at 0.16 ± 0.07 s⁻¹ and the “kcat,AcCoA” value was determined as 0.094 ± 0.004 s⁻¹.
